In ChEMBL document CHEMBL5042549, “Discovery of Inhibitors of the Lipopolysaccharide Transporter MsbA: From a Screening Hit to Potent Wild-Type Gram-Negative Activity” (J Med Chem, 2022):
≈ marks a conversion by molar mass, not a printed value.

Legend:
[1] = Inhibition of Escherichia coli MsbA preincubated for 10 mins followed by ATP addition and incubated for 1 hr by fluorescence polarization assay
[2] = Lipophilicity, logD of compound by shake flask method; format: physicochemical; conditions: octanol/water
[3] = test system: Escherichia coli; test: Antibacterial activity against wild type Escherichia coli CFT073 (ATCC 700928) assessed as bacterial growth by broth microdilution assay; format: functional
[4] = test system: Enterobacter cloacae; test: Antibacterial activity against wild type Enterobacter cloacae (ATCC 13047) assessed as bacterial growth inhibition by broth microdilution assay; format: functional
[5] = test system: Escherichia coli; test: Antibacterial activity against wild type Escherichia coli MG1655 msbA-cKO lptD (imp4213) expressing Acinetobacter baumannii MsbA assessed as bacterial growth inhibition by broth microdilution assay; format: functional
[6] = test system: Jurkat; test: Cytotoxicity against human Jurkat cells at 50 uM; format: toxicity, cell-based
[7] = test system: A549; test: Cytotoxicity against human A549 cells at 50 uM; format: toxicity, cell-based; conditions: a549, 50 µM
[8] = test system: Escherichia coli; test: Selectivity ratio of MIC for Escherichia coli MG1655 msbA-cKO lptD (imp4213) […]; format: functional
[9] = test system: Klebsiella pneumoniae; test: Antibacterial activity against wild type Klebsiella pneumoniae MGH78578 (ATCC 700721) assessed as bacterial growth inhibition by broth microdilution assay; format: functional
[10] = test system: Escherichia coli; test: Antibacterial activity against wild type Escherichia coli MG1655 msbA-cKO lptD (imp4213) expressing Escherichia coli MsbA assessed as bacterial growth inhibition by broth microdilution assay; format: functional
[11] = test system: HEK293; test: Cytotoxicity against human HEK293 cells at 50 uM; format: toxicity, cell-based; conditions: hek293, 50 µM
[12] = test system: Escherichia coli; test: Antibacterial activity against wild type Escherichia coli MG1655 carrying lptD (imp4213) assessed as bacterial growth inhibition by broth microdilution assay; format: functional

C[C@H](Oc1ccc2ncc(/C=C/C(=O)O)cc2c1)c1c(Cl)ccc(F)c1Cl
IC50 [1]: 140 nM | logD [2]: 2.5 | MIC [3]: > 100 µM

Cc1c(/C=C/C(=O)O)cnc2ccc(O[C@@H](C)c3c(Cl)ccc(F)c3Cl)cc12
IC50 [1]: 20 nM | logD [2]: 3 | MIC [3]: > 100 µM

C[C@H](Oc1ccc2ncc(/C=C/C(=O)O)c(C3COC3)c2c1)c1c(Cl)ccc(F)c1Cl
IC50 [1]: 120 nM | MIC [3]: > 100 µM

C[C@H](Oc1ccc2ncc(/C=C/c3nn[nH]n3)c(C3CC3)c2c1)c1c(Cl)cccc1Cl
MIC [4]: 25 µM (≈ 11.3 µg/mL) | IC50 [1]: 2 nM | MIC [5]: 50 µM (≈ 22.6 µg/mL) | logD [2]: 4.3 | MIC [3]: 12 µM | Activity [6]: Non-Toxic | Activity [7]: Non-Toxic | Selectivity ratio [8]: > 500 | MIC [9]: 12 µM (≈ 5.43 µg/mL) | MIC [10]: < 0.1 µM | Activity [11]: Non-Toxic

C[C@H](Oc1ccc(NC(=O)CC(=O)O)c(C2CC2)n1)c1c(Cl)ccc(F)c1Cl
IC50 [1]: 12 nM | logD [2]: 1.4 | MIC [12]: 31 µM (≈ 13.2 µg/mL) | MIC [3]: > 100 µM

C[C@H](Oc1ccc(NC(=O)CC(N)=O)c(C2CC2)c1)c1c(Cl)ccc(F)c1Cl
IC50 [1]: 40 nM | logD [2]: 3.9 | MIC [12]: 25 µM (≈ 10.6 µg/mL) | MIC [3]: > 100 µM

C[C@H](Oc1ccc2c(=O)nc(/C=C/C(=O)O)n(C3CC3)c2c1)c1c(Cl)ccc(F)c1Cl
IC50 [1]: 7200 nM | MIC [3]: > 100 µM

C[C@H](Oc1ccc2ncc(/C=C/C(=O)O)c(CF)c2c1)c1c(Cl)ccc(F)c1Cl
IC50 [1]: 25 nM | MIC [3]: > 100 µM

C[C@H](Oc1cccc(C2CC2)c1)c1c(Cl)ccc(F)c1Cl
IC50 [1]: > 10000 nM | logD [2]: 5 | MIC [12]: > 100 µM | MIC [3]: > 100 µM

C[C@H](Oc1ccc(/C=C/C(=O)O)c(C2CC2)c1)c1c(Cl)ccc(F)c1Cl
IC50 [1]: 100 nM | logD [2]: 3.6 | MIC [12]: 100 µM (≈ 39.5 µg/mL) | MIC [3]: > 100 µM

C[C@H](Oc1ccc2nnc(/C=C/C(=O)O)c(C3CC3)c2c1)c1c(Cl)ccc(F)c1Cl
IC50 [1]: 20 nM | logD [2]: 3.2 | MIC [3]: > 100 µM

Cc1cnn(C)c1[C@H](C)Oc1ccc2ncc(/C=C/C(=O)O)c(C3CC3)c2c1
IC50 [1]: > 10000 nM | logD [2]: 0.9 | MIC [3]: > 100 µM

CC(C)Oc1ccc2ncc(/C=C/C(=O)O)c(C3CC3)c2c1
IC50 [1]: > 10000 nM | MIC [3]: > 100 µM

C[C@H](Oc1ccc2ncc(/C=C/C(=O)N3CC[C@@H](N)[C@H](C(=O)O)C3)c(C3CC3)c2c1)c1c(Cl)ccc(F)c1Cl (mixture of isomers)
IC50 [1]: 5 nM | logD [2]: 3.1 | MIC [3]: > 100 µM

C[C@H](Oc1ccc2ncc(/C=C/S(=O)(=O)O)c(C3CC3)c2c1)c1c(Cl)ccc(F)c1Cl
IC50 [1]: 14 nM | logD [2]: 2.5 | MIC [3]: > 100 µM

C[C@H](Oc1ccc2ncc(CCC(=O)O)c(C3CC3)c2c1)c1c(Cl)ccc(F)c1Cl
IC50 [1]: 7 nM | logD [2]: 4.1 | MIC [3]: > 100 µM

C[C@H](Oc1ccc2ncc(/C=C/C(=O)O)c(C3CC3)c2c1)c1c(Cl)ccc(N)c1Cl
IC50 [1]: 14 nM | logD [2]: 2.8 | MIC [3]: 63 µM

CC(Oc1ccc2ncc(/C=C/C(=O)O)c(C3CC3)c2c1)c1c(Cl)cccc1C#N (stereo not drawn)
IC50 [1]: 24 nM | logD [2]: 2.2 | MIC [3]: > 100 µM

C[C@H](Oc1ccc2ncc(/C=C/C(=O)O)c(C3CC3)c2c1)c1c(Cl)cccc1Cl
IC50 [1]: 2 nM | logD [2]: 3.7 | MIC [3]: 30 µM

CC(Oc1ccc2ncc(/C=C/C(=O)O)cc2c1)C1CCCCC1 (stereo not drawn)
IC50 [1]: 39000 nM | logD [2]: 3

C[C@H](Oc1ccc2c(c1)CN(CCC(=O)O)CC2)c1c(Cl)ccc(F)c1Cl
IC50 [1]: > 50000 nM | MIC [3]: > 100 µM

C[C@H](Oc1ccc(/C=C/C(=O)O)cc1)c1c(Cl)ccc(F)c1Cl
IC50 [1]: 5800 nM | logD [2]: 2.8 | MIC [12]: > 100 µM | MIC [3]: > 100 µM

C[C@H](Oc1cnc2cnc(/C=C/C(=O)O)c(C3CC3)c2c1)c1c(Cl)cccc1Cl
IC50 [1]: 12 nM | MIC [3]: > 100 µM

C[C@H](Oc1ccc2ncc(/C=C/C(=O)O)c(N(C)C)c2c1)c1c(Cl)ccc(F)c1Cl
IC50 [1]: 290 nM | logD [2]: 3.6 | MIC [3]: > 100 µM

C[C@H](Oc1ccc2c(c1)c(C1CC1)c(/C=C/C(=O)O)c[n+]2[O-])c1c(Cl)ccc(F)c1Cl
IC50 [1]: 13 nM | logD [2]: 1.7 | MIC [3]: > 100 µM

C[C@H](Oc1ccc2ncc(/C=C/C(=O)O)c(C3CC3)c2c1)c1c(Cl)ccc(F)c1Cl
IC50 [1]: 4 nM | logD [2]: 4.1 | MIC [3]: 79 µM

C[C@H](Oc1ccnc(C2CC2)n1)c1c(Cl)ccc(F)c1Cl
IC50 [1]: 450 nM | logD [2]: 4.2 | MIC [12]: > 100 µM | MIC [3]: > 100 µM

C[C@H](Oc1ccc2ncc(S(=O)(=O)CC(=O)O)c(C3CC3)c2c1)c1c(Cl)ccc(F)c1Cl
IC50 [1]: 78 nM | logD [2]: 2.5 | MIC [3]: > 100 µM

C[C@H](Oc1ccc2ncc(/C=C/C(N)=O)c(C3CC3)c2c1)c1c(Cl)ccc(F)c1Cl
IC50 [1]: 7 nM | logD [2]: > 5.5 | MIC [3]: > 100 µM

C[C@H](Oc1ccnc(C2CC2)c1)c1c(Cl)ccc(F)c1Cl
IC50 [1]: 3400 nM | logD [2]: 4.3 | MIC [12]: > 100 µM | MIC [3]: > 100 µM

C[C@H](Oc1ccc2ncc(O)c(C3CC3)c2c1)c1c(Cl)ccc(F)c1Cl
IC50 [1]: 42 nM | MIC [3]: > 100 µM

C[C@H](Oc1ccc2ncc(/C=C/C(=O)O)c(O)c2c1)c1c(Cl)ccc(F)c1Cl
IC50 [1]: 5000 nM | logD [2]: 1.9 | MIC [3]: > 100 µM

C[C@H](Oc1cc(B(O)O)c2ncc(/C=C/C(=O)O)c(C3CC3)c2c1)c1c(Cl)ccc(F)c1Cl
IC50 [1]: 150 nM | MIC [3]: > 100 µM

C[C@H](Oc1ccc2ncc(/C=C/C(=O)NC(CC(=O)O)CC(=O)O)c(C3CC3)c2c1)c1c(Cl)ccc(F)c1Cl
IC50 [1]: 9 nM | logD [2]: 0.4 | MIC [3]: > 100 µM

C[C@H](Oc1ccc2ncc(/C=C/c3nn[nH]n3)c(C(F)F)c2c1)c1c(Cl)cccc1Cl
MIC [4]: 50 µM (≈ 23.1 µg/mL) | IC50 [1]: 8 nM | MIC [5]: 50 µM (≈ 23.1 µg/mL) | logD [2]: 3.3 | MIC [3]: 25 µM | Activity [6]: Non-Toxic | Activity [7]: Non-Toxic | Selectivity ratio [8]: 31 | MIC [9]: 25 µM (≈ 11.6 µg/mL) | MIC [10]: 1.6 µM (≈ 0.74 µg/mL) | Activity [11]: Non-Toxic

C[C@H](Oc1ccc2ncc(/C=C/c3nn[nH]n3)c(C3CC3)c2c1)c1c(Cl)ccc(F)c1Cl
IC50 [1]: 3 nM | logD [2]: 3.7 | MIC [3]: 12 µM

C[C@H](Oc1ccc2ncc(/C=C/C(=O)O)c(C#N)c2c1)c1c(Cl)ccc(F)c1Cl
IC50 [1]: 110 nM | logD [2]: 2.3 | MIC [3]: > 100 µM

C[C@H](Oc1ccc(NC(=O)CC(N)=O)c(C2CC2)n1)c1c(Cl)ccc(F)c1Cl
IC50 [1]: 27 nM | logD [2]: 3.7 | MIC [12]: 12 µM (≈ 5.12 µg/mL) | MIC [3]: > 100 µM

C[C@H](Oc1ccc2ncc(/C=C/C(=O)O)c(-n3ccnc3)c2c1)c1c(Cl)ccc(F)c1Cl
IC50 [1]: 2200 nM | logD [2]: 2 | MIC [3]: > 100 µM

C[C@H](Oc1nccc(N(c2nc(C(=O)O)cs2)C2CC2)n1)c1c(Cl)ccc(F)c1Cl
IC50 [1]: 46 nM | logD [2]: 2.6 | MIC [3]: > 100 µM

O=C(O)/C=C/c1cnc2ccc(O[C@@H](CO)c3c(Cl)cccc3Cl)cc2c1C1CC1
IC50 [1]: 550 nM | logD [2]: 2 | MIC [3]: > 100 µM

Cc1cc(O[C@@H](C)c2c(Cl)ccc(F)c2Cl)ccc1/C=C/C(=O)O
IC50 [1]: 2200 nM | logD [2]: 3.2 | MIC [12]: > 100 µM | MIC [3]: > 100 µM

C[C@H](Oc1cccc(C2CC2)n1)c1c(Cl)ccc(F)c1Cl
IC50 [1]: > 10000 nM | logD [2]: 4.9 | MIC [12]: > 100 µM | MIC [3]: > 100 µM

C[C@H](Oc1ccc2nc(OCCN)c(CCC(=O)O)c(C3CC3)c2c1)c1c(Cl)ccc(F)c1Cl
IC50 [1]: 32 nM | logD [2]: 3.8 | MIC [3]: > 100 µM

C[C@H](Oc1ccc2ncc(/C=C/C(=O)NS(C)(=O)=O)c(C3CC3)c2c1)c1c(Cl)cccc1Cl
IC50 [1]: 2 nM | logD [2]: 2.9 | MIC [3]: 35 µM

C[C@H](Oc1ccc2ncc(/C=C/C(=O)O)c(C(F)F)c2c1)c1c(Cl)ccc(F)c1Cl
IC50 [1]: 8 nM | logD [2]: 3.1 | MIC [3]: 25 µM

C[C@H](Oc1cc(CC#N)c2ncc(/C=C/C(=O)O)c(C3CC3)c2c1)c1c(Cl)ccc(F)c1Cl
IC50 [1]: 20 nM | logD [2]: 2.8 | MIC [3]: 79 µM

C[C@H](Oc1ccc(NC(=O)CC(=O)O)c(C2CC2)c1)c1c(Cl)ccc(F)c1Cl
IC50 [1]: 60 nM | logD [2]: 1.9 | MIC [12]: 71 µM (≈ 30.3 µg/mL) | MIC [3]: > 100 µM

C[C@H](Oc1ccc(/C=C/C(=O)O)c(CC2CC2)c1)c1c(Cl)ccc(F)c1Cl
IC50 [1]: 460 nM | logD [2]: 3.9 | MIC [12]: 50 µM (≈ 20.5 µg/mL) | MIC [3]: > 100 µM

Cc1c(/C=C/C(=O)O)ccc2ccc(O[C@@H](C)c3c(Cl)ccc(F)c3Cl)cc12
IC50 [1]: 32 nM | logD [2]: 4.5 | MIC [3]: > 100 µM

C[C@H](Oc1cc(CO)c2ncc(/C=C/C(=O)O)c(C3CC3)c2c1)c1c(Cl)ccc(F)c1Cl
IC50 [1]: 10 nM | logD [2]: 2.9 | MIC [3]: > 100 µM

C[C@H](Oc1ccc2ncc(-c3ccn(CCC(=O)O)n3)c(C3CC3)c2c1)c1c(Cl)cccc1Cl
IC50 [1]: 6 nM | logD [2]: 2.7 | MIC [3]: > 100 µM

C[C@H](Oc1ccc2ncc(/C=C/C(=O)O)c(C3CC3)c2c1)c1c(Cl)ccnc1Cl
IC50 [1]: 18 nM | logD [2]: 2.3 | MIC [3]: > 100 µM
